In patent US10610522B2, “Methods for retreating irritable bowel syndrome (IBS)” (Salix Pharmaceuticals, Inc., priority 2014, dated 2020):

System: C. difficile infection (CDI)
Experiment: Double-blind non-inferiority trial rifaximin 400 mg TID vs vancomycin 125 mg QID, 10 days, C. difficile infection
Type: in vivo, human
Experimental: Criteria for entry into the trial were: • Age >=18 years old; • Had acute diarrhea at screening defined as >=3 unformed stools in the last 24 hours and at least one sign of enteric infection (fever, nausea, lose of appetite, vomiting, severe abdominal pain/discomfort); and • a positive C. diff stool toxin assay Endpoint:
The primary efficacy endpoint of the study was defined as the proportion of subjects achieving clinical success. Specifically, clinical success was defined as the absence of severe abdominal pain at Test of Cure (TOC), absence of fever (<38° C.) at TOC, and <3 unformed stools for two consecutive days at TOC.
Clinical success was defined as the: Absence of severe abdominal pain at TOC, absence of fever (<38° C.) at TOC, and <3 unformed stools for two consecutive days at TOC. Test of cure defined as Day 14+/−1 day.
Recurrence was defined to be a diarrhea and a positive C. diff stool toxin assay that occurred after initial clinical success.
Global cure of diarrhea was defined as subjects who were cured of diarrhea at TOC without recurrence at follow up.
Subjects who completed the study without achieving clinical success were censored at Day 14

[1] = Rifaximin N = 117, Vancomycin N = 115
[2] = adjusting for concomitant medication usage, Rifaximin N = 109, Vancomycin N = 112
[3] = adjusting for concomitant medication usage, Rifaximin N = 117, Vancomycin N = 115
[4] = after initial clinical success, Rifaximin N = 67, Vancomycin N = 73
[5] = all subjects, Rifaximin N = 117, Vancomycin N = 115
[6] = at TOC, Rifaximin N = 108, Vancomycin N = 111
[7] = at TOC, Rifaximin N = 117, Vancomycin N = 115
[8] = cured at TOC without recurrence at follow up, Rifaximin N = 117, Vancomycin N = 115
[9] = subgroup Age <65, at TOC, Rifaximin N = 69, Vancomycin N = 62
[10] = subgroup Age >=65, at TOC, Rifaximin N = 39, Vancomycin N = 49
[11] = subgroup Female, at TOC, Rifaximin N = 68, Vancomycin N = 64
[12] = subgroup Male, at TOC, Rifaximin N = 40, Vancomycin N = 47

CN[C@H](CC(C)C)C(=O)N[C@H]1C(=O)N[C@@H](CC(N)=O)C(=O)N[C@H]2C(=O)N[C@H]3C(=O)N[C@H](C(=O)N[C@H](C(=O)O)c4cc(O)cc(O)c4-c4cc3ccc4O)[C@H](O)c3ccc(c(Cl)c3)Oc3cc2cc(c3O[C@@H]2O[C@H](CO)[C@@H](O)[C@H](O)[C@H]2O[C@H]2C[C@](C)(N)[C@H](O)[C@H](C)O2)Oc2ccc(cc2Cl)[C@H]1O [Vancomycin]
Continuing Illness No: % of subjects [1]: 86% | Continuing Illness No: number of subjects [1]: 99 | Continuing Illness Yes: % of subjects [1]: 14% | Continuing Illness Yes: number of subjects [1]: 16 | Global Cure of Diarrhea No: % of subjects [1]: 26% | Global Cure of Diarrhea No: number of subjects [1]: 30 | Diarrhea No: % of subjects [2]: 73% | Diarrhea No: number of subjects [2]: 82 | Diarrhea Yes: % of subjects [2]: 27% | Diarrhea Yes: number of subjects [2]: 30 | Clinical Success No: % of subjects [3]: 40% | Clinical Success No: number of subjects [3]: 46 | Clinical Success Yes: % of subjects [3]: 60% | Clinical Success Yes: number of subjects [3]: 69 | No Recurrence of CDI: % of subjects [4]: 86% | No Recurrence of CDI: number of subjects [4]: 63 | Recurrence of CDI: % of subjects [4]: 14% | Recurrence of CDI: number of subjects [4]: 10 | Recurrence No: % of subjects [5]: 93% | Recurrence No: number of subjects [5]: 105 | Recurrence Yes: % of subjects [5]: 7% | Recurrence Yes: number of subjects [5]: 10 | Diarrhea No: % of subjects [6]: 81% | Diarrhea No: number of subjects [6]: 90 | Diarrhea Yes: % of subjects [6]: 19% | Diarrhea Yes: number of subjects [6]: 21 | Fever No: % of subjects [6]: 98% | Fever No: number of subjects [6]: 109 | Fever Yes: % of subjects [6]: 2 (2%) | Fever Yes: number of subjects [6]: 2 (2%) | Severe Abdominal Pain/Discomfort No: % of subjects [6]: 86% | Severe Abdominal Pain/Discomfort No: number of subjects [6]: 95 | Severe Abdominal Pain/Discomfort Yes: % of subjects [6]: 14% | Severe Abdominal Pain/Discomfort Yes: number of subjects [6]: 16 | Clinical Success No: % of subjects [7]: 37% | Clinical Success No: number of subjects [7]: 42 | Clinical Success Yes: % of subjects [7]: 64% | Clinical Success Yes: number of subjects [7]: 73 | Global Cure of Diarrhea Yes: % of subjects [8]: 74% | Global Cure of Diarrhea Yes: number of subjects [8]: 85 | Adjusted mean number of unformed stools-ANOVA (during the treatment period, Rifaximin N = 117, Vancomycin N = 115): 1.90 | Diarrhea: % of subjects [9]: 19% | Diarrhea: number of subjects [9]: 12 | No Diarrhea: % of subjects [9]: 81% | No Diarrhea: number of subjects [9]: 50 | Diarrhea: % of subjects [10]: 18% | Diarrhea: number of subjects [10]: 9 | No Diarrhea: % of subjects [10]: 82% | No Diarrhea: number of subjects [10]: 40 | Diarrhea: % of subjects [11]: 17% | Diarrhea: number of subjects [11]: 11 | No Diarrhea: % of subjects [11]: 83% | No Diarrhea: number of subjects [11]: 53 | Diarrhea: % of subjects [12]: 21% | Diarrhea: number of subjects [12]: 10 | No Diarrhea: % of subjects [12]: 79% | No Diarrhea: number of subjects [12]: 37
